Measured values: ChEMBL document CHEMBL4609988, “Heterocycle amide isosteres: An approach to overcoming resistance for HIV-1 integrase strand transfer inhibitors” (Bioorg Med Chem Lett, 2020)

Experiments:
[1] = tested on: Human immunodeficiency virus 1; experiment: Ratio of EC50 for antiviral activity against HIV1 NL4-3 harboring G140S/Q148H mutant to EC50 for antiviral activity against HIV1 NL4-3; type: functional
[2] = tested on: Human immunodeficiency virus 1; experiment: Antiviral activity against HIV1 NL4-3 harboring N155H mutant by cellular assay; type: functional, organism-based; conditions: Human immunodeficiency virus 1, NL4-3
[3] = tested on: Human immunodeficiency virus 1; experiment: Antiviral activity against HIV1 NL4-3 harboring […]/Q148H mutant by cellular assay; type: functional, organism-based; conditions: Human immunodeficiency virus 1, NL4-3
[4] = tested on: Human immunodeficiency virus 1; experiment: Antiviral activity against HIV1 NL4-3 by cellular assay; type: functional, organism-based; conditions: Human immunodeficiency virus 1, NL4-3
[5] = tested on: Human immunodeficiency virus 1; experiment: Antiviral activity against HIV1 NL4-3 harboring Q148R mutant by cellular assay; type: functional, organism-based; conditions: Human immunodeficiency virus 1, NL4-3
[6] = tested on: Human immunodeficiency virus 1; experiment: Ratio of EC50 for antiviral activity against HIV1 NL4-3 harboring Q148R mutant to EC50 for antiviral activity against HIV1 NL4-3; type: functional
[7] = tested on: Human immunodeficiency virus 1; experiment: Ratio of EC50 for antiviral activity against HIV1 NL4-3 harboring N155H mutant to EC50 for antiviral activity against HIV1 NL4-3; type: functional
[8] = Clearance in rat at 1 mg/kg, iv; type: ADME, organism-based; conditions: in vivo
[9] = AUC in rat at 1 mg/kg, iv; type: ADME, organism-based; conditions: in vivo
[10] = Volume of distribution at steady state in rat at 1 mg/kg, iv; type: ADME, organism-based; conditions: in vivo, read-out: Vdss
[11] = molecular target: Human immunodeficiency virus type 1 integrase (Human immunodeficiency virus 1, UniProt Q7ZJM1); experiment: Inhibition of HIV-1 integrase strand transfer activity
Chain of Human immunodeficiency virus type 1 integrase (Q7ZJM1 whole entry): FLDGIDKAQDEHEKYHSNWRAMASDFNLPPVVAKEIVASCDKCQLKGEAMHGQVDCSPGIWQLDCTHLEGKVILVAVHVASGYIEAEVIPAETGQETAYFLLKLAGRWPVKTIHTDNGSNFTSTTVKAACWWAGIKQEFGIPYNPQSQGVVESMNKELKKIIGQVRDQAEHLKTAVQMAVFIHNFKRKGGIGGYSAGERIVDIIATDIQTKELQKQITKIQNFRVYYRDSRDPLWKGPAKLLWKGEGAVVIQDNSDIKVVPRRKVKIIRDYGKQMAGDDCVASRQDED

In the case of `CC1(C)OCCn2c1nc(C(=O)NCc1ccc(F)cc1)c(O)c2=O`, the “Ratio EC50” value [1] is reported as >2666, the EC50 [2] is reported as 140 nM and the EC50 [3] is reported as > 8000 nM. For the same compound, the EC50 [4] was 3 nM, the EC50 [5] was 300 nM and the “Ratio EC50” value [6] was 99. For the same compound, the “Ratio EC50” value [7] was 47.
`Cn1c(Cc2ccc(F)cc2)cnc1-c1nc2n(c(=O)c1O)CCOC2(C)C` showed an EC50 [2] of 36 nM, an EC50 [3] of 530 nM and an EC50 [4] of 10 nM. The EC50 [5] was 61 nM, the clearance [8] was 11 mL/min/kg and the AUC [9] was 3.92 µM·h. The Vd [10] was 0.5 L/kg.
With `CC1(C)OCCn2c1nc(-c1nc(Cl)c(Cc3ccc(F)cc3)[nH]1)c(O)c2=O` the EC50 [11] was > 64 µM.
In the case of `CC1(C)OCCn2c1nc(-c1ncn(Cc3ccc(F)cc3)n1)c(O)c2=O`, the “Ratio EC50” value [1] is reported as 563, the EC50 [2] is reported as 16 nM and the EC50 [3] is reported as 3700 nM. The EC50 [4] was 7 nM, the EC50 [5] was 220 nM and the “Ratio EC50” value [6] was 34. For the same compound, the clearance [8] was 52 mL/min/kg, the “Ratio EC50” value [7] was 2 and the AUC [9] was 0.872 µM·h. For the same compound, the Vd [10] was 1.5 L/kg.
With `CC1(C)OCCn2c1nc(-c1ncc(Cc3ccc(F)cc3)s1)c(O)c2=O` the “Ratio EC50” value [1] was 177, the EC50 [2] was 34 nM and the EC50 [3] was 540 nM. The EC50 [4] was 3 nM, the EC50 [5] was 91 nM and the “Ratio EC50” value [6] was 30. For the same compound, the “Ratio EC50” value [7] was 11.
With `CC1(C)OCCn2c1nc(-c1nnc(Cc3ccc(F)cc3)[nH]1)c(O)c2=O` the “Ratio EC50” value [1] was >500, the EC50 [2] was 4000 nM and the EC50 [3] was > 40000 nM. The EC50 [4] was 81 nM, the EC50 [5] was 1500 nM and the “Ratio EC50” value [6] was 19. The “Ratio EC50” value [7] was 49.
In the case of `CC1(C)OCCn2c1nc(-c1ncc(Cc3ccc(F)cc3)[nH]1)c(O)c2=O`, the “Ratio EC50” value [1] is reported as 54, the EC50 [2] is reported as 2 nM and the EC50 [3] is reported as 320 nM. For the same compound, the EC50 [4] was 6 nM, the EC50 [5] was 33 nM and the “Ratio EC50” value [6] was 6. The clearance [8] was 10 mL/min/kg, the “Ratio EC50” value [7] was 0.3 and the AUC [9] was 4.55 µM·h. For the same compound, the Vd [10] was 0.3 L/kg.
In the case of `Cn1cc(Cc2ccc(F)cc2)nc1-c1nc2n(c(=O)c1O)CCOC2(C)C`, the EC50 [11] is reported as 9.3 µM.
With `Cn1c(Cc2ccc(F)cc2)nnc1-c1nc2n(c(=O)c1O)CCOC2(C)C` the EC50 [3] was 1100 nM, the EC50 [4] was 81 nM and the EC50 [5] was 450 nM.
With `CC1(C)OCCn2c1nc(-c1ncc(Cc3ccc(F)cc3)o1)c(O)c2=O` the “Ratio EC50” value [1] was 318, the EC50 [2] was 88 nM and the EC50 [3] was 6900 nM. The EC50 [4] was 22 nM, the EC50 [5] was 330 nM and the “Ratio EC50” value [6] was 15. For the same compound, the “Ratio EC50” value [7] was 4.
In the case of `CC1(C)OCCn2c1nc(-c1nnc(Cc3ccc(F)cc3)o1)c(O)c2=O`, the “Ratio EC50” value [1] is reported as >100, the EC50 [2] is reported as 1300 nM and the EC50 [3] is reported as > 40000 nM. The EC50 [4] was 390 nM, the EC50 [5] was 190 nM and the “Ratio EC50” value [6] was 0.5. For the same compound, the “Ratio EC50” value [7] was 3.
In the case of `CC1(C)OCCn2c1nc(-c1cc(Cc3ccc(F)cc3)[nH]n1)c(O)c2=O`, the “Ratio EC50” value [1] is reported as 36, the EC50 [2] is reported as 260 nM and the EC50 [3] is reported as 4200 nM. The EC50 [4] was 120 nM, the EC50 [5] was 3000 nM and the “Ratio EC50” value [6] was 26. The “Ratio EC50” value [7] was 22.
In the case of `CC1(C)OCCn2c1nc(-c1cn(Cc3ccc(F)cc3)cn1)c(O)c2=O`, the “Ratio EC50” value [1] is reported as 80, the EC50 [2] is reported as 9 nM and the EC50 [3] is reported as 320 nM. The EC50 [4] was 4 nM, the EC50 [5] was 26 nM and the “Ratio EC50” value [6] was 7. The clearance [8] was 127 mL/min/kg, the “Ratio EC50” value [7] was 2 and the AUC [9] was 0.353 µM·h. It also gave a Vd [10] of 3.5 L/kg.
With `Cc1nc(-c2nc3n(c(=O)c2O)CCOC3(C)C)nn1Cc1ccc(F)cc1` the EC50 [11] was > 30 µM.
